The values below come from article PMC8159961, “Exploring protein hotspots by optimized fragment pharmacophores” (Nature Communications, 2021).

The test system of data set [1] is MOLM-13 leukemia cells. Kind of data set: Cell viability assay, CellTiter-Glo, 5 days. The settings on record: for normalized viability (0 = 0 % viability, 1 = 100 % viability): MOLM-13, nM], replicates. For orientation: Cellular ATP, detected with luciferase, serves as a proxy for viable cell number.
The target of data set [2] is T1, human 5-HT1A receptor (Homo sapiens, UniProt P08908).
T1 construct: expressed in transfected cells
T1 sequence (P08908 1-422): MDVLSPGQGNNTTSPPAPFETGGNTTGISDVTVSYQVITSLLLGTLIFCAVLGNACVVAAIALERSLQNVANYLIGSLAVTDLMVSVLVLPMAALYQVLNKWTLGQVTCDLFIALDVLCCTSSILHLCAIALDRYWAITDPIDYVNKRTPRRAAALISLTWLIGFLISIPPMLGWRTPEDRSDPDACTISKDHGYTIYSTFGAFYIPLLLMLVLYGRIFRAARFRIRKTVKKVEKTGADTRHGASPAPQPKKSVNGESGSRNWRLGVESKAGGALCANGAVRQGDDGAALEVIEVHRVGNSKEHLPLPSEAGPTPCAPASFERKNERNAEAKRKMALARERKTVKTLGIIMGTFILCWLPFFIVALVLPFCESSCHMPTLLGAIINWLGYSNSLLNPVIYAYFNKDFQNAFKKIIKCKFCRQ
Kind of data set: GPCR radioligand binding assay, [3H]-8-OH-DPAT displacement, HEK293 membranes.

Data set [3] deals with T2, human 5-HT7b receptor (Homo sapiens, UniProt P34969).
T2 construct: expressed in transfected cells
T2 sequence (P34969 1-432): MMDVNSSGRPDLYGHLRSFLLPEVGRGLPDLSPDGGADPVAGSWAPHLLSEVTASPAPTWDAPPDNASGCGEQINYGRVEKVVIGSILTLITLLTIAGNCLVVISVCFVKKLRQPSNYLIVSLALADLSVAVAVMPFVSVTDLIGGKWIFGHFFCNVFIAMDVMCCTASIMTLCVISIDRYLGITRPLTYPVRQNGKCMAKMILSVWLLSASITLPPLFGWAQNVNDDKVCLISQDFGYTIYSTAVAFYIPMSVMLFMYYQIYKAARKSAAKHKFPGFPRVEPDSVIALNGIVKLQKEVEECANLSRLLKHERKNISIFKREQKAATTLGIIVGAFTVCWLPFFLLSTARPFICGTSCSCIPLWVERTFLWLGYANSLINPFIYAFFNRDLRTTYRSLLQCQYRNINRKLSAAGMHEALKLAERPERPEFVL
The experiment in a line: GPCR radioligand binding assay, [3H]-5-CT displacement, HEK293 membranes.

Data set [4] addresses T3, recombinant SETD2 (Homo sapiens, UniProt Q9BYW2).
T3 construct: purchased BPS Bioscience 52060
T3 sequence (Q9BYW2 1418-1714 limits assumed): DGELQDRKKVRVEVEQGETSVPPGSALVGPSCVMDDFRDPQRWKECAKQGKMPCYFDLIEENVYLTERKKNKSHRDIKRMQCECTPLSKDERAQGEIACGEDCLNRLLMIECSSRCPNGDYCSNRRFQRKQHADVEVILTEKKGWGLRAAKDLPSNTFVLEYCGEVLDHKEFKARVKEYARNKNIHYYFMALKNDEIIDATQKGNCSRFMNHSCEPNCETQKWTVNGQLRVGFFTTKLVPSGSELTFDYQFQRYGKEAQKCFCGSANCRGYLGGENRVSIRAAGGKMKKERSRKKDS
Kind of data set: SETD2 Chemiluminescence assay (H3K36 tri-methylation). In kind it is biochemical. To be noted: for SETD2 signal normalised to positive control and internally to compound: nM], replicates.

In data set [5] the target is T4, human thrombin (Homo sapiens, UniProt P00734).
T4 construct: human thrombin; purchased Sigma-Aldrich
Kind of data set: Protease inhibitory assay, chromogenic substrate S-2238. To be noted: plate layout, label = plate position; Cheng-Prusoff, Km 2.6 µM; read-out: Thrombin Ki. In kind it is biochemical.

Data set [6] concerns MV4-11 leukemia cells. Kind of data set: Cell viability assay, CellTiter-Glo, 5 days. The settings on record: for normalized viability (0 = 0 % viability, 1 = 100 % viability): MV4-11, nM], replicates.
The target in data set [7] is T5, human 5-HT6 receptor (Homo sapiens, UniProt P50406).
T5 construct: expressed in transfected cells
T5 sequence (P50406 whole entry): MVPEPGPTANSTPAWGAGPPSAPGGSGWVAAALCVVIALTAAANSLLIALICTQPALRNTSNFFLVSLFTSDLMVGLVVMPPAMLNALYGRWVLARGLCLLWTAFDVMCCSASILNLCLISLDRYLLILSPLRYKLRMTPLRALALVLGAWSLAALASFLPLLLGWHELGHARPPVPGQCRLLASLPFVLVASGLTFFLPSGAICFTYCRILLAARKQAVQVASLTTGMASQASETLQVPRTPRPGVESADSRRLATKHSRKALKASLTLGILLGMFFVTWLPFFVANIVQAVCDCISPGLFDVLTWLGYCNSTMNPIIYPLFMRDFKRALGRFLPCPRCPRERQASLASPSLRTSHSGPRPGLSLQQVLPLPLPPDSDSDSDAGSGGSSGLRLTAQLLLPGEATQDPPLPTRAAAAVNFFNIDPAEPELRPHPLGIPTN
The experiment in a line: GPCR radioligand binding assay, [3H]-LSD displacement, HEK293 membranes.

Data set [8] addresses T6, SARS-CoV-2 NSP3 macrodomain (Severe acute respiratory syndrome coronavirus 2, UniProt P0DTD1). Kind of data set: X-ray fragment screening (XChem, crystal soaking). Type of data set: binding.
The subject of data set [9] is SARS-CoV-2. The experiment in a line: microbe, parasite or virus in culture. Type of data set: cell-based. To be noted: for EC50: Vero E6 cells, 48 h post infection, read-out: EC50, blocking SARS-CoV-2 replication; for antiviral activity in the cellular assay (in words): infected Vero E6 cells.
Data set [10] has as its target T6, SARS-CoV-2 NSP3 macrodomain. The experiment in a line: NSP3 macrodomain HTRF assay, displacement of ADP-ribose-conjugated biotin peptide. Type of data set: binding. To be noted: HTRF assay, up to 5 mM concentration. (Time-resolved FRET reads energy transfer from a long-lived donor to a nearby acceptor.)

Structures are written as SMILES. Where “and” joins values, the source holds several entries; their conditions need not be identical. Identical values can stand only once. Entries after “also recorded” stand apart in the source; their conditions may differ. Like-named read-outs stand apart in the source and are kept apart here.

The term IC50 denotes the concentration at which inhibition is half-maximal. By Ki is commonly meant the equilibrium dissociation constant of an inhibitor or competing ligand from its target. Consider `CC1CCc2sc(C(=O)O)cc2C1` (stereo not drawn) [SX045], for which the “normalized viability (0 = 0 % viability, 1 = 100 % viability)” value is 1.039 and 0.9762 and 0.9421 in [1] (concentration 2.18 [log); 1.004 and 0.9844 and 0.9162 in [1] (concentration 2.66 [log); 0.9835 and 0.9812 and 0.9002 in data set [1] (concentration 3.14 [log); 0.9836 and 0.9626 and 0.8884 in [1] (concentration 3.61 [log); 0.9563 and 0.9463 and 0.9164 in data set [1] (concentration 4.09 [log); 0.8812 and 0.9087 and 0.8366 in data set [1] (concentration 4.57 [log). Besides, the “normalized viability (0 = 0 % viability, 1 = 100 % viability)” value in data set [1] (concentration 5.05 [log) is 0.7992 and 0.5481 and 0.7667; in data set [1] (concentration 5.52 [log), 0.5003 and 0.4827 and 0.2594; in [1] (concentration 6 [log) it was 0.05284 and 0.001062 and 0.1076; in data set [6] (concentration 2.18 [log), 0.9962 and 1.163 and 0.9666; in [6] (concentration 2.66 [log) it was 0.9943 and 0.9504 and 0.9572; in [6] (concentration 3.14 [log), 0.9413 and 0.941 and 0.9817. Moreover, the “normalized viability (0 = 0 % viability, 1 = 100 % viability)” value in data set [6] (concentration 3.61 [log) was 0.7873 and 0.9285 and 0.9554; in data set [6] (concentration 4.09 [log) it was 0.7566 and 0.9251 and 0.9854; in [6] (concentration 4.57 [log) it was 0.732 and 0.9248 and 0.8741; in data set [6] (concentration 5.05 [log) it was 0.7081 and 0.7223 and 0.7408; in data set [6] (concentration 5.52 [log), 0.4531 and 0.4099 and 0.4328; in data set [6] (concentration 6 [log), 0.0008148 and 0.0004041 and 0.01018. Also, the “IC50 cell viability / anti-proliferative EC50” value worked out at 333 µM in data set [1] (MOLM-13 cells, 5 days after treatment) and 400 µM in [6] (MV4-11 cells, 5 days after treatment). The inhibition at 10 µM was 0% in data set [2] (10 µM, read-out: 5-HT1A % Inhibition by plate position); -1% in [2] (5-HT1A, average of exp_1 and exp_2, read-out: %inh 5-HT1A average); 0% in data set [2] (5-HT1A, average, values below 0 and above 100% were set as 0 and 100, read-out: %inh 5-HT1A corrected*); -0.0944% in [2] (5-HT1A, replicate exp_1, read-out: %inh 5-HT1A exp_1); -2% in data set [2] (5-HT1A, replicate exp_2, read-out: %inh 5-HT1A exp_2); 4.44% in data set [3] (10 µM, read-out: 5-HT7 % Inhibition by plate position). Further, the inhibition at 10 µM in data set [3] (5-HT7, average of exp_1 and exp_2, read-out: %inh 5-HT7 average) was 4.44%; in data set [3] (5-HT7, average, values below 0 and above 100% were set as 0 and 100, read-out: %inh 5-HT7 corrected*), 4.44%; in [3] (5-HT7, replicate exp_1, read-out: %inh 5-HT7 exp_1), -4.73%; in data set [3] (5-HT7, replicate exp_2, read-out: %inh 5-HT7 exp_2), 14%; in data set [7] (10 µM, read-out: 5-HT6 % Inhibition by plate position) it was 45%; in data set [7] (5-HT6, average of exp_1 and exp_2, read-out: %inh 5-HT6 average), 45%. Moreover, the inhibition at 10 µM was 45% in [7] (5-HT6, average, values below 0 and above 100% were set as 0 and 100, read-out: %inh 5-HT6 corrected*); 52% in [7] (5-HT6, replicate exp_1, read-out: %inh 5-HT6 exp_1); 38% in [7] (5-HT6, replicate exp_2, read-out: %inh 5-HT6 exp_2). The IC50 in data set [4] (chemiluminescence-based enzymatic assay) is 300 µM. In addition, the “SETD2 signal normalised to positive control and internally to compound” value was 0.78 and 0.88 in data set [4] (fragment concentration 4.4 [log); 0.71 and 0.90 in data set [4] (fragment concentration 5 [log); 0.89 and 0.66 in data set [4] (fragment concentration 5.3 [log); 0.20 and 0.33 in data set [4] (fragment concentration 5.6 [log); 0.05 and 0.21 in data set [4] (fragment concentration 5.9 [log). Besides, in data set [5], the Ki was 65 µM.

As a reminder, the EC50 is the concentration needed to bring the measured effect to its halfway point. `CC1C(=O)NC(=O)N1c1ccc(Cl)cc1` (stereo not drawn) [SX051]: the “X-ray screen result, binding site” value in [8] is given as “identified in the active site”. Besides, the “Inhibition (%) of viral copy numbers” value in data set [9] (10 uM, replicates) is 0% and 9.716% and 1.026%; in [9] (100 uM, replicates), 32.89% and 37.84%; in data set [9] (250 uM, replicates), 83.75% and 96.5% and 61.73%; in [9] (500 uM, replicates) it was 86.97% and 88.23%; in [9] (750 uM, replicates) it was 96.17% and 94.15%; in [9] (1000 uM, replicates) it was 100% and 99.81%. Besides, the “viral copy numbers normalized to the control (untreated infected cells)” value is 2.076 and 0.9028 and 0.9897 in data set [9] (10 uM, replicates); 0.7145 and 0.6711 and 0.6216 in data set [9] (100 uM, replicates); 0.1625 and 0.03502 and 0.3827 in data set [9] (250 uM, replicates); 0.2487 and 0.1303 and 0.1177 in data set [9] (500 uM, replicates); 0.05523 and 0.03827 and 0.05848 in data set [9] (750 uM, replicates); 0.003839 and 0 and 0.001919 in data set [9] (1000 uM, replicates). For the same compound, the inhibition at 100 µM in [9] (Severe acute respiratory syndrome coronavirus 2, Vero C1008, 100 uM, replicates, read-out: Inhibition (%) of viral copy numbers) was 28.5%. Further, the inhibition at 500 µM in [9] (Severe acute respiratory syndrome coronavirus 2, Vero C1008, 500 uM, replicates, read-out: Inhibition (%) of viral copy numbers) stood at 75.1%. Moreover, in [9] (Severe acute respiratory syndrome coronavirus 2, Vero C1008, 750 uM, replicates, read-out: Inhibition (%) of viral copy numbers), the inhibition at 750 µM was 94.5%. Moreover, the inhibition at 1000 µM in data set [9] (Severe acute respiratory syndrome coronavirus 2, Vero C1008, 1000 uM, replicates, read-out: Inhibition (%) of viral copy numbers) is 99.6%. Moreover, the EC50 in [9] (Severe acute respiratory syndrome coronavirus 2, Vero C1008, 48 h) worked out at 136 µM; in data set [9] it was 136 µM. Besides, the “antiviral activity in the cellular assay (in words)” value in data set [9] is “high micromolar range; also recorded: Significant antiviral activities”. Moreover, in [10], the “activity in the NSP3 enzyme assay (in words)” value is on record as “no activity”.

As for `Clc1ccc2nnnn2n1` [SX054], in data set [8], the “X-ray screen result, binding site” value is reported as “identified in the active site”. In [9], the “antiviral activity in the cellular assay (in words)” value was “inactive in cells”. Also, in data set [10], the “activity in the NSP3 enzyme assay (in words)” value is reported as “no activity”.
